Results as given in patent US9238656B2, “Imidazo[4,5-b]pyridine derivatives as ALK and JAK modulators for the treatment of proliferative disorders” (priority 2012, dated 2016).
pIC50: −log10 of the molar value.

What was measured:
[1] = target: baculovirus-expressed ALK (Homo sapiens, UniProt Q9UM73); assay: ALK kinase inhibition, TRF/ELISA; format: biochemical; settings: read-out: ALK Potency
Outline: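 Eu-PT66 anti-phosphotyrosine TRF read-out measured phosphorylation of plate-bound GST-PLC-γ (coated at 10 μg/mL). The phosphorylation was driven by 30 ng/mL ALK for 15 minutes at 37° C.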

[2] = target: baculovirus-expressed JAK2 kinase (Homo sapiens, UniProt O60674); assay: biochemical; settings: 0.2 μM ATP; read-out: JAK2 Potency
Sequence of baculovirus-expressed JAK2 kinase (O60674 whole entry): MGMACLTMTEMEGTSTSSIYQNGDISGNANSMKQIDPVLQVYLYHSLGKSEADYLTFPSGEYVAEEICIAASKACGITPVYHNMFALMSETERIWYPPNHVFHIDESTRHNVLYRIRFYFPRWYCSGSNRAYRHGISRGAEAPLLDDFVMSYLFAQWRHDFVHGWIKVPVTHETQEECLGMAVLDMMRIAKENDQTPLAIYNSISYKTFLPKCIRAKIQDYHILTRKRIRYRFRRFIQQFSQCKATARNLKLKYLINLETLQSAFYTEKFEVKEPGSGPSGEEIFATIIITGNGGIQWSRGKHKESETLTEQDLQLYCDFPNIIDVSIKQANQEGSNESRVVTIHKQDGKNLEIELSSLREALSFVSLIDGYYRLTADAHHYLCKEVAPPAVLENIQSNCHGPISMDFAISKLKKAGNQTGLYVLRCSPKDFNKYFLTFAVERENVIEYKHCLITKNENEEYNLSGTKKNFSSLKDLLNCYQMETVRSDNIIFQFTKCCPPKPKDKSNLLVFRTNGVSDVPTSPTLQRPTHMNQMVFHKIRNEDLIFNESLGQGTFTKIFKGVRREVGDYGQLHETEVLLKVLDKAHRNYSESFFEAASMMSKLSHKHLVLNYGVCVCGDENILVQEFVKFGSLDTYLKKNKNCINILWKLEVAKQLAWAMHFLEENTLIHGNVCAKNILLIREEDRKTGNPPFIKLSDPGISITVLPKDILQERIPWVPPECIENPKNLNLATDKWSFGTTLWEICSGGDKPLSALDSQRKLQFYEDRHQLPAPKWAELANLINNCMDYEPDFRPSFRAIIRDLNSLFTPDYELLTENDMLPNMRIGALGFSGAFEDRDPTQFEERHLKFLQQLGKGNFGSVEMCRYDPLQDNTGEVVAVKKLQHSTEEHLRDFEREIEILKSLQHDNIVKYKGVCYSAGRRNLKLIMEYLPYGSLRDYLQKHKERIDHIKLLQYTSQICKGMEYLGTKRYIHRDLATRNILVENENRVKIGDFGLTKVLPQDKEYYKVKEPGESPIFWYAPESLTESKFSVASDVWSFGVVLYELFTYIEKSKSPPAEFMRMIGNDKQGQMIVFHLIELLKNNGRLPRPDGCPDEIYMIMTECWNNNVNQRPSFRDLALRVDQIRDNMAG
Outline: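 IC50 derived by variable-slope sigmoidal fit of percent inhibition against log compound concentration. Baculovirus-expressed JAK2 (15 ng/mL) phosphorylated a plate-bound biotinylated 15-mer peptide for 20 min at room temperature; detection by time-resolved fluorescence.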

Sequence of baculovirus-expressed ALK (Q9UM73 19-1620): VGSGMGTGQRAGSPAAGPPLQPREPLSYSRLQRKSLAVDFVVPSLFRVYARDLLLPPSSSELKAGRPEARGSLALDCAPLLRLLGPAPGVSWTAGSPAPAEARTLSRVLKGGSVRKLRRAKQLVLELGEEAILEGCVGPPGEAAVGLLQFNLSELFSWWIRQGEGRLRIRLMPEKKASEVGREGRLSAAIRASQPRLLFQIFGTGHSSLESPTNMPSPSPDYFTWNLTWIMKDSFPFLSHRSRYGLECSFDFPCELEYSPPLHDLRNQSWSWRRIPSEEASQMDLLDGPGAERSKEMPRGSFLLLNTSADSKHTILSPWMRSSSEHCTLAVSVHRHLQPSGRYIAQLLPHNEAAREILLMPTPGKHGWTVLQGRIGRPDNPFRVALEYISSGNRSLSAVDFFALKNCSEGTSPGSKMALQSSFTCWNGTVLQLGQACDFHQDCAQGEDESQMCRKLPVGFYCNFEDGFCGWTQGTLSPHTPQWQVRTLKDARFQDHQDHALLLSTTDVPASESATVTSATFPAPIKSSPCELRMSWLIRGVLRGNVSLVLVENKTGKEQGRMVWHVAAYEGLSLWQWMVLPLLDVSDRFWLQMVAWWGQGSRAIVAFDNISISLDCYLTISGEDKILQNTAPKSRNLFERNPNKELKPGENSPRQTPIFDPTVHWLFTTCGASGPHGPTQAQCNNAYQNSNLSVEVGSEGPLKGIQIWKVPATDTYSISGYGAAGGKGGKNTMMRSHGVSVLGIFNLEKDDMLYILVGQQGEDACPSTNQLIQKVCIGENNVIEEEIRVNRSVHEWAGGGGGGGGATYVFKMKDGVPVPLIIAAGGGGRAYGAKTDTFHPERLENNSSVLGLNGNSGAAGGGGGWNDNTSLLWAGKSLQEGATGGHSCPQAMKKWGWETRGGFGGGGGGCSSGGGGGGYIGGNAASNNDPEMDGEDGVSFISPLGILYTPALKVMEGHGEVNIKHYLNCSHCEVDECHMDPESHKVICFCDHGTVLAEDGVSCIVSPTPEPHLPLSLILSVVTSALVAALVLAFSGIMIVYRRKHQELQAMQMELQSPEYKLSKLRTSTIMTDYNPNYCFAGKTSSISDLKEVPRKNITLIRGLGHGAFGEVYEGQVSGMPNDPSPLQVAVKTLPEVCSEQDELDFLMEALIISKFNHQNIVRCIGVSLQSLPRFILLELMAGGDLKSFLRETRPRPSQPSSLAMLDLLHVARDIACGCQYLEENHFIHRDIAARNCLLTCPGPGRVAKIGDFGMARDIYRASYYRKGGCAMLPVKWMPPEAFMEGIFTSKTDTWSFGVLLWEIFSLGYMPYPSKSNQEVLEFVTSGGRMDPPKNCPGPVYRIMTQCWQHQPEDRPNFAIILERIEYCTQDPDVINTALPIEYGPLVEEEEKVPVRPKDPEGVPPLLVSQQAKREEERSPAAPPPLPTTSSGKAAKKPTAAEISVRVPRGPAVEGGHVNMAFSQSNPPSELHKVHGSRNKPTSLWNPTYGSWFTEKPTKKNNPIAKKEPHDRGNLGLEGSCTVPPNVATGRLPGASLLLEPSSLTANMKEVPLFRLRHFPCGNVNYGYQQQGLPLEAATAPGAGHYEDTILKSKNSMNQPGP

Structure (SMILES)	pIC50 [1]	pIC50 [2]	melting point [°C]
CN1CCN(Cc2ccc(-c3nc4c(N[C@H]5[C@@H](C(N)=O)[C@@H]6C=C[C@H]5C6)c(Br)cnc4[nH]3)cc2)CC1 [Compound C]	> 7.00	> 7.00	208 to 209
COc1cc(N(C)C)ccc1-c1nc2c(N[C@H]3[C@@H](C(N)=O)[C@@H]4C=C[C@H]3C4)ccnc2[nH]1 [Compound XCIII, (1S,2S,3R,4R)-3-[2-(4-Dimethylamino-2-methoxy-phenyl)-3H-imidazo[4,5-b]pyridin-7-ylamino]-bicyclo[2.2.1]hept-5-ene-2-carboxylic acid amide]	< 5.00	< 5.00	185 to 190
COc1cc(N2CCN(C)CC2)ccc1-c1nc2c(N[C@H]3[C@@H](C(N)=O)[C@@H]4C=C[C@H]3C4)ccnc2[nH]1 [Compound XCV, (1S,2S,3R,4R)-3-{2-[2-Methoxy-4-(4-methyl-piperazin-1-yl)-phenyl]-3H-imidazo[4,5-b]pyridin-7-ylamino}-bicyclo[2.2.1]hept-5-ene-2-carboxylic acid amide]	5.00 to 6.00	5.00 to 6.00	185 to 195
NC(=O)[C@@H]1[C@H](Nc2ccnc3[nH]c(-c4ccc(N5CCOCC5)cc4)nc23)[C@H]2C=C[C@@H]1C2 [Compound LXXXIX, (1S,2S,3R,4R)-3-[2-(4-Morpholin-4-yl-phenyl)-3H-imidazo[4,5-b]pyridin-7-ylamino]-bicyclo[2.2.1]hept-5-ene-2-carboxylic acid amide]	< 5.00	5.00 to 6.00	240 to 244
COc1cc(N2CCN(C)CC2)ccc1-c1nc2c(N[C@H]3[C@@H](C(N)=O)[C@@H]4C=C[C@H]3C4)c(Br)cnc2[nH]1 [Compound XCVI, (1S,2S,3R,4R)-3-{6-Bromo-2-[2-methoxy-4-(4-methyl-piperazin-1-yl)-phenyl]-3H-imidazo[4,5-b]pyridin-7-ylamino}-bicyclo[2.2.1]hept-5-ene-2-carboxylic acid amide]	> 7.00	> 7.00	185 to 195
COc1ccc(-c2nc3c(N[C@H]4[C@@H](C(N)=O)[C@@H]5C=C[C@H]4C5)c(Cl)cnc3[nH]2)c(C2CCNCC2)c1 [Compound XXX, (1S,2S,3R,4R)-3-[6-Chloro-2-(4-methoxy-2-piperidin-4-yl-phenyl)-3H-imidazo[4,5-b]pyridine-7-ylamino]-bicyclo[2.2.1]hept-5-ene-2-carboxylic acid amide]	5.00 to 6.00	6.00 to 7.00	199 to 200
COC[C@H](O)CN1CCC(c2ccc(-c3nc4c(N[C@H]5[C@@H](C(N)=O)[C@@H]6C=C[C@H]5C6)c(Cl)cnc4[nH]3)c(OC)c2)CC1 [Compound LIV]	> 7.00	> 7.00	116 to 122
NC(=O)[C@@H]1[C@H](Nc2c(Cl)cnc3[nH]c(-c4ccc(C(=O)NCC(=O)O)cc4)nc23)[C@H]2C=C[C@@H]1C2 [Compound CCXXVIII, 2-(4-(7-((1R,2R,3S,4S)-3-carbamoylbicyclo[2.2.1]hept-5-en-2-ylamino)-6-chloro-3H-imidazo[4,5-b]pyridine-2-yl)benzamido)acetic acid]	6.00 to 7.00	> 7.00	291
CC(O)CN1CCN(C(=O)c2ccc(-c3nc4c(N[C@H]5[C@@H](C(N)=O)[C@@H]6C=C[C@H]5C6)c(Cl)cnc4[nH]3)cc2)CC1 (stereo partly drawn) [Compound CCXXIV, (1S,2S,3R,4R)-3-(6-chloro-2-(4-(4-(2-hydroxypropyl)piperazine-1-carbonyl)phenyl)-3H-imidazo[4,5-b]pyridine-7-ylamino)pyridin[2.2.1]hept-5-ene-2-carboxamide]	> 7.00	> 7.00	224
CN(C)c1cccc(-c2nc3c(N[C@H]4[C@@H](C(N)=O)[C@@H]5C=C[C@H]4C5)c(Br)cnc3[nH]2)c1 [Compound LXXVII, (1S,2S,3R,4R)-3-[6-Bromo-2-(3-dimethylamino-phenyl)-3H-imidazo[4,5-b]pyridin-7-ylamino]-bicyclo[2.2.1]hept-5-ene-2-carboxylic acid amide]	> 7.00	> 7.00	220 to 221
NC(=O)[C@@H]1[C@H](Nc2c(Br)cnc3[nH]c(-c4cccnc4N4CCOCC4)nc23)[C@H]2C=C[C@@H]1C2 [Compound CII, (1S,2S,3R,4R)-3-[6-Bromo-2-(2-morpholin-4-yl-pyridin-3-yl)-3H-imidazo[4,5-b]pyridin-7-ylamino]-bicyclo[2.2.1]hept-5-ene-2-carboxylic acid amide]	5.00 to 6.00	5.00 to 6.00	150
CC(O)CN1CCN(C(=O)c2cccc(-c3nc4c(N[C@H]5[C@@H](C(N)=O)[C@@H]6C=C[C@H]5C6)c(Cl)cnc4[nH]3)c2)CC1 (stereo partly drawn) [Compound CCXXIII, (1S,2S,3R,4R)-3-(6-chloro-2-(3-(4-(2-hydroxypropyl)piperazine-1-carbonyl)phenyl)-3H-imidazo[4,5-b]pyridine-7-ylamino)pyridin[2.2.1]hept-5-ene-2-carboxamide]	6.00 to 7.00	> 7.00	183
NC(=O)[C@@H]1[C@H](Nc2c(Cl)cnc3[nH]c(-c4cccc(C(=O)NC(CO)C(=O)O)c4)nc23)[C@H]2C=C[C@@H]1C2 (stereo partly drawn) [Compound CCXXIX, 2-(3-(7-((1R,2R,3S,4S)-3-carbamoylbicyclo(2.2.1)hept-5-en-2-ylamino)-6-chloro-3H-imidazo[4,5-b]pyridine-2-yl)benzamido)-3-hydroxypropanoic acid]	5.00 to 6.00	> 7.00	243
COc1cc(CN2CCN(C[C@H](C)O)CC2)ccc1-c1nc2c(N[C@H]3[C@@H](C(N)=O)[C@@H]4C=C[C@H]3C4)c(Cl)cnc2[nH]1 [Compound XLIII, (1S,2S,3R,4R)-3-(6-Chloro-2-{4-[4-((S)-2-hydroxypropyl)-piperazin-1-ylmethyl]-2-methoxyphenyl}-3H-imidazo[4,5-b]pyridine-7-ylamino)-bicyclo[2.2.1]hept-5-ene-2-carboxylic acid amide]	> 7.00	> 7.00	142 to 146
NC(=O)[C@@H]1[C@H](Nc2c(Br)cnc3[nH]c(-c4cccc(CN5CCOCC5)c4)nc23)[C@H]2C=C[C@@H]1C2 [Compound LXXXI, (1S,2S,3R,4R)-3-[6-Bromo-2-(3-morpholin-4-ylmethyl-phenyl)-3H-imidazo[4,5-b]pyridin-7-ylamino]-bicyclo[2.2.1]hept-5-ene-2-carboxylic acid amide]	> 7.00	> 7.00	184 to 185
NC(=O)[C@@H]1[C@H](Nc2c(Br)cnc3[nH]c(-c4ccoc4)nc23)[C@H]2C=C[C@@H]1C2 [Compound CVIII, (1S,2S,3R,4R)-3-(6-Bromo-2-furan-3-yl-3H-imidazo[4,5-b]pyridin-7-ylamino)-bicyclo[2.2.1]hept-5-ene-2-carboxylic acid amide]	6.00 to 7.00	> 7.00	231 to 232
NC(=O)[C@@H]1[C@H](Nc2ccnc3[nH]c(-c4cccc(CN5CCOCC5)c4)nc23)[C@H]2C=C[C@@H]1C2 [Compound XCI, (1S,2S,3R,4R)-3-[2-(3-Morpholin-4-ylmethyl-phenyl)-3H-imidazo[4,5-b]pyridin-7-ylamino]-bicyclo[2.2.1]hept-5-ene-2-carboxylic acid amide]	< 5.00	5.00 to 6.00	240 to 244
